Measured values taken from publication PMC4303209, “A novel phosphatidylinositol 3-kinase (PI3K) inhibitor directs a potent FOXO-dependent, p53-independent cell cycle arrest phenotype characterized by the differential induction of a subset of FOXO-regulated genes” (Breast Cancer Research : BCR, 2014).

System: MCF-7 breast cancer cells
Assay: Microarray gene expression analysis (Agilent whole human genome 4 x 44K; compound vs DMSO, LIMMA log2 fold change)
Assay type: cell-based
[1] = MCF-7, 100nM, six hours, 1.5-fold expression change threshold

Structure (SMILES): Oc1cccc(-c2nc(N3CCOCC3)c3oc4ncccc4c3n2)c1 [PI-103]
- ESCO1 log2FC (Gene 114799, cell cycle genes): 0.45
- UHRF2 log2FC (Gene 115426, cell cycle genes): 0.51
- KLHDC3 log2FC (Gene 116138, cell cycle genes): 0.0341
- CNTROB log2FC (Gene 116840, cell cycle genes): 0.23
- NEDD1 log2FC (Gene 121441, cell cycle genes): 0.35
- HEXIM2 log2FC (Gene 124790, cell cycle genes): 0.87
- ARL8A log2FC (Gene 127829, cell cycle genes): 0.56
- UHMK1 log2FC (Gene 127933, cell cycle genes): -0.17
- IQGAP3 log2FC (Gene 128239, cell cycle genes): 0.35
- NUP35 log2FC (Gene 129401, cell cycle genes): -0.36
- MITD1 log2FC (Gene 129531, cell cycle genes): 0.71
- NUDT16 log2FC (Gene 131870, cell cycle genes): -0.23
- ZFP42 log2FC (Gene 132625, cell cycle genes): -0.0323
- JMY log2FC (Gene 133746, cell cycle genes): 1.01
- HUS1B log2FC (Gene 135458, cell cycle genes): -0.84
- NEK7 log2FC (Gene 140609, cell cycle genes): 0.11
- CTCFL log2FC (Gene 140690, cell cycle genes): -0.0211
- PSMA8 log2FC (Gene 143471, cell cycle genes): 0.0738
- SESN3 log2FC (Gene 143686, cell cycle genes): 0.12
- PIWIL4 log2FC (Gene 143689, cell cycle genes): 0.27
- E2F7 log2FC (Gene 144455, cell cycle genes): -0.38
- RAD9B log2FC (Gene 144715, cell cycle genes): -0.00292
- KCTD11 log2FC (Gene 147040, cell cycle genes): 0.28
- PYHIN1 log2FC (Gene 149628, cell cycle genes): -0.0139
- PPP1R1C log2FC (Gene 151242, cell cycle genes): 0.09
- SGOL2 log2FC (Gene 151246, cell cycle genes): 0.87
- SGOL1 log2FC (Gene 151648, cell cycle genes): 0.42
- ROPN1B log2FC (Gene 152015, cell cycle genes): 0.0015
- DAB2IP log2FC (Gene 153090, cell cycle genes): 0.03
- CDCA2 log2FC (Gene 157313, cell cycle genes): 0.46
- ESCO2 log2FC (Gene 157570, cell cycle genes): 0.48
- SASS6 log2FC (Gene 163786, cell cycle genes): 0.49
- WBP2NL log2FC (Gene 164684, cell cycle genes): -0.0843
- THAP5 log2FC (Gene 168451, cell cycle genes): 0.10
- FLCN log2FC (Gene 201163, cell cycle genes): 0.78
- STRA13 log2FC (Gene 201254, cell cycle genes): -0.39
- TUBB log2FC (Gene 203068, cell cycle genes): -0.55
- REEP3 log2FC (Gene 221035, cell cycle genes): -0.29
- C6orf89 log2FC (Gene 221477, cell cycle genes): -0.38
- SPDYA log2FC (Gene 245711, cell cycle genes): -0.01
- CDC26 log2FC (Gene 246184, cell cycle genes): -0.67
- ASPM log2FC (Gene 259266, cell cycle genes): 1.14
- SLC39A5 log2FC (Gene 283375, cell cycle genes): 0.05
- GAS2L3 log2FC (Gene 283431, cell cycle genes): 0.53
- NSMCE2 log2FC (Gene 286053, cell cycle genes): 0.84
- LIN9 log2FC (Gene 286826, cell cycle genes): 1.23
- TMPRSS11A log2FC (Gene 339967, cell cycle genes): 0.0013
- NUP43 log2FC (Gene 348995, cell cycle genes): 0.24
- APITD1 log2FC (Gene 378708, cell cycle genes): 0.07
- SETD8 log2FC (Gene 387893, cell cycle genes): -0.04
- PIM3 log2FC (Gene 415116, cell cycle genes): 0.64
- PIWIL3 log2FC (Gene 440822, cell cycle genes): -0.09
- expression of FOXO-dependent apoptosis genes including TNFSF10, BCL211 and FASLG (array) (MCF-7): did not significantly change
- number of differentially expressed genes [1]: more than 2,000
- number of induced (upregulated) genes [1]: 1,293
- number of repressed (downregulated) genes [1]: 886
- CCND1, SPRY2 and MMP9 expression (array) (MCF-7, FOXO target genes): significantly downregulated
- expression of CCNG2, KLHL24, DDIT3, CITED2 and RICTOR (array) (MCF-7, FOXO target genes): significantly upregulated
- MAD1L1 log2FC (cell cycle genes): -0.14
- ACSL5 log2FC (gene ACSL5 (51703), apoptosis genes): 0.058
- log2FC (gene ACTR1A (Gene 10121), cell cycle genes): -0.13
- ADAMTS20 log2FC (gene ADAMTS20 (80070), apoptosis genes): -0.005
- ADIPOQ log2FC (gene ADIPOQ (9370), apoptosis genes): -0.040
- ADRA1A log2FC (gene ADRA1A (148), apoptosis genes): 0.010
- AGTR2 log2FC (gene AGTR2 (186), apoptosis genes): 0.044
- log2FC AKAP8 (gene AKAP8 (Gene 10270), cell cycle genes): -0.20
- ALB log2FC (gene ALB (213), apoptosis genes): -0.044
- ALOX12 log2FC (gene ALOX12 (239), apoptosis genes): -0.144
- ALX3 log2FC (gene ALX3 (257), apoptosis genes): 0.013
- ALX4 log2FC (gene ALX4 (60529), apoptosis genes): -0.036
- log2FC (gene ANAPC13 (Gene 25847), cell cycle genes): -0.30
- ANKRD13C log2FC (gene ANKRD13C (81573), apoptosis genes): -0.007
- APBB1 log2FC (gene APBB1 (322), apoptosis genes): 0.356
- APOH log2FC (gene APOH (350), apoptosis genes): 0.052
- AQP1 log2FC (gene AQP1 (358), apoptosis genes): -0.011
- ARHGAP10 log2FC (gene ARHGAP10 (79658), apoptosis genes): -0.061
- ARHGEF6 log2FC (gene ARHGEF6 (9459), apoptosis genes): -0.152
- ARHGEF16 log2FC (gene ARHGEF16 (27237), apoptosis genes): 0.275
